Results on four compounds are retold here after patent publication US20060135432A1, “Agonists and antagonists of conadotropin-releasing hormone-2, and use thereof” (priority 2002, published 2006).

Where a SMILES comes first, the peptide text is derived from it. [ ]: non-standard residue; d: D form. dPhe(4-Cl) = N[C@H](Cc1ccc(Cl)cc1)C(=O)O; d2Nal = N[C@H](Cc1ccc2ccccc2c1)C(=O)O; dCit = NC(=O)NCCC[C@@H](N)C(=O)O; d3Pal = N[C@H](Cc1cccnc1)C(=O)O; pGlu = O=C1CC[C@@H](C(=O)O)N1

Experiment [1] concerns Primate GnRH-2 receptor. Description: Inhibition of GnRH-2-induced c-fos-luc luciferase activity in cells expressing Primate GnRH-2 receptor. The format is cell-based. The following applies: treated at the same time as GnRH-2. As to the method:
(§1) Complimentary DNA (cDNA) for a Primate GnRH-2 receptor was obtained from a CV-1 cell genome. […] Plasmids having Primate GnRH-2 receptors where transfected into CV-1 cells. To assay the activity of the receptor, c-fos-luc where a luciferase gene is fused with a c-fos promoter was co-transfected as a probe gene. After 48 hours from transfection, the cells were treated with GnRH-2 agonists and then the activity of luciferase was assayed (Seong et al., Endocrinology vol 144 2003, 454-466).
In the same manner as in 2-3 above, Primate GnRH-2 receptors were co-transfected along with c-fos-luc reporter genes, and after 48 hours, GnRH-2 and GnRH-2 antagonists were treated thereinto at the same time and then the effect of GnRH-2 antagonists was observed.

The test system of experiment [2] is Primate GnRH-2 receptor. Description: c-fos-luc luciferase activation in CV-1 cells expressing Primate GnRH-2 receptor. The format is cell-based. The protocol: as §1
Of the GnRH-2 receptors, [D-Ala^6]GnRH-2 performed excellently, showing effects about 3 times that of a wild-type ligand, GnRH-2. […] When analogs where the 5th, 7th, and 8th amino acids of [D-Ala^6]GnRH-2 are substituted were used, it was observed that their effects were weaker than [D-Ala^6]GnRH-2, and therefore it can be seen that it is important to maintain His, Trp, and Tyr that are found at the 5th, 7th, and 8th positions of GnRH-2 as they are (FIG. 3b).

For “Ac-D2Nal-(4Cl)D-Phe-D-3Pal-Ser-Tyr-DCit-Trp-Leu-Pro-DAla-NH2 (Ac-[d2Nal][dPhe(4-Cl)][d3Pal]SY[dCit]WLP[dA]-NH2; SMILES CC(=O)N[C@H](Cc1ccc2ccccc2c1)C(=O)N[C@H](Cc1ccc(Cl)cc1)C(=O)N[C@H](Cc1cccnc1)C(=O)N[C@@H](CO)C(=O)N[C@@H](Cc1ccc(O)cc1)C(=O)N[C@H](CCCNC(N)=O)C(=O)N[C@@H](Cc1c[nH]c2ccccc12)C(=O)N[C@@H](CC(C)C)C(=O)N1CCC[C@H]1C(=O)N[C@H](C)C(N)=O) [Trptorelix-3]”, the “effect on luciferase activity induced by GnRH-2” value in experiment [1] is on record as “no effect”.
The same measure, in the same setting: under `CC(=O)N[C@H](Cc1ccc2ccccc2c1)C(=O)N[C@H](Cc1ccc(Cl)cc1)C(=O)N[C@H](Cc1cccnc1)C(=O)N[C@@H](CO)C(=O)N[C@@H](Cc1c[nH]cn1)C(=O)N[C@H](CCCNC(N)=O)C(=O)N[C@@H](Cc1c[nH]c2ccccc12)C(=O)N[C@@H](Cc1ccc(O)cc1)C(=O)N1CCC[C@H]1C(=O)N[C@H](C)C(N)=O` [Trptorelix-2, Ac-D2Nal-(4Cl)D-Phe-D-3Pal-Ser-His-DCit-Trp-Tyr-Pro-DAla-NH2] (Ac-[d2Nal][dPhe(4-Cl)][d3Pal]SH[dCit]WYP[dA]-NH2) stands “reduced in a concentration-dependent manner”.
Consider “[D-Ala^6]GnRH-1: the agonist of GnRH-1 [reference compound]”, for which the “sensitivity as compared with GnRH-2” value in experiment [2] is given as “very low sensitivity”.
With “p-Glu-His-Trp-Ser-His-D-Lys-Trp-Tyr-Pro-Gly-NH2 ([pGlu]HWSH[dK]WYPG-NH2; SMILES NCCCC[C@@H](NC(=O)[C@H](Cc1c[nH]cn1)NC(=O)[C@H](CO)NC(=O)[C@H](Cc1c[nH]c2ccccc12)NC(=O)[C@H](Cc1c[nH]cn1)NC(=O)[C@@H]1CCC(=O)N1)C(=O)N[C@@H](Cc1c[nH]c2ccccc12)C(=O)N[C@@H](Cc1ccc(O)cc1)C(=O)N1CCC[C@H]1C(=O)NCC(N)=O) [[D-Lys^6]GnRH-2]”, in experiment [2], the “effect reduced, fold, as compared with GnRH-2” value is reported as “about 1.5 fold”.
